Tests used:
Assay type in all cases: cell-based
Nav 1.7 [1] = target: T1, Nav 1.7 (Homo sapiens (Human), UniProt Q15858); test: Nav 1.7 in vitro assay, IonWorks Quattro (IWQ) population patch-clamp; settings: HEK 293 cells stably transfected with Nav 1.7; 26th pulse to -20 mV
Description: (§1) Nav 1.7 and Nav 1.5 In Vitro Assays
(§2) HEK 293 cells stably transfected with either Nav 1.7 or with Nav 1.5 were recorded in population patch-clamp mode with the IonWorks® Quattro automated electrophysiology system in accordance with the manufacturer's specifications (Molecular Devices, LLC, Sunnyvale, Calif.). Sodium channel currents were measured in response to a train of depolarizations that induced successively greater inactivation.
(§3) Cells were held at −110 mV for three seconds (Nav 1.7) or half a second (Nav 1.5) from a holding voltage of −15 mV, then put through a series of 26 pulses of 150 msec duration to −20 mV at a frequency of 5 Hz. Cells were then left unclamped for a period of 3 to 8 minutes while a single concentration of test compound was added. Cells were then reclamped and put through the same voltage protocol. Current at the end of the 26th pulse to −20 mV was subtracted from the peak current evoked by the 26th pulse to −20 mV to correct for leak current. Percent block was calculated for each concentration in duplicate, and IC50 curves were fitted to percent block as a function of concentration.

Nav 1.5 = Nav 1.5 (Homo sapiens (Human), UniProt Q14524); test: Nav 1.5 in vitro assay, IonWorks Quattro (IWQ) population patch-clamp; settings: HEK 293 cells stably transfected with Nav 1.5; 26th pulse to -20 mV
Sequence of Nav 1.5 (Q14524 whole entry): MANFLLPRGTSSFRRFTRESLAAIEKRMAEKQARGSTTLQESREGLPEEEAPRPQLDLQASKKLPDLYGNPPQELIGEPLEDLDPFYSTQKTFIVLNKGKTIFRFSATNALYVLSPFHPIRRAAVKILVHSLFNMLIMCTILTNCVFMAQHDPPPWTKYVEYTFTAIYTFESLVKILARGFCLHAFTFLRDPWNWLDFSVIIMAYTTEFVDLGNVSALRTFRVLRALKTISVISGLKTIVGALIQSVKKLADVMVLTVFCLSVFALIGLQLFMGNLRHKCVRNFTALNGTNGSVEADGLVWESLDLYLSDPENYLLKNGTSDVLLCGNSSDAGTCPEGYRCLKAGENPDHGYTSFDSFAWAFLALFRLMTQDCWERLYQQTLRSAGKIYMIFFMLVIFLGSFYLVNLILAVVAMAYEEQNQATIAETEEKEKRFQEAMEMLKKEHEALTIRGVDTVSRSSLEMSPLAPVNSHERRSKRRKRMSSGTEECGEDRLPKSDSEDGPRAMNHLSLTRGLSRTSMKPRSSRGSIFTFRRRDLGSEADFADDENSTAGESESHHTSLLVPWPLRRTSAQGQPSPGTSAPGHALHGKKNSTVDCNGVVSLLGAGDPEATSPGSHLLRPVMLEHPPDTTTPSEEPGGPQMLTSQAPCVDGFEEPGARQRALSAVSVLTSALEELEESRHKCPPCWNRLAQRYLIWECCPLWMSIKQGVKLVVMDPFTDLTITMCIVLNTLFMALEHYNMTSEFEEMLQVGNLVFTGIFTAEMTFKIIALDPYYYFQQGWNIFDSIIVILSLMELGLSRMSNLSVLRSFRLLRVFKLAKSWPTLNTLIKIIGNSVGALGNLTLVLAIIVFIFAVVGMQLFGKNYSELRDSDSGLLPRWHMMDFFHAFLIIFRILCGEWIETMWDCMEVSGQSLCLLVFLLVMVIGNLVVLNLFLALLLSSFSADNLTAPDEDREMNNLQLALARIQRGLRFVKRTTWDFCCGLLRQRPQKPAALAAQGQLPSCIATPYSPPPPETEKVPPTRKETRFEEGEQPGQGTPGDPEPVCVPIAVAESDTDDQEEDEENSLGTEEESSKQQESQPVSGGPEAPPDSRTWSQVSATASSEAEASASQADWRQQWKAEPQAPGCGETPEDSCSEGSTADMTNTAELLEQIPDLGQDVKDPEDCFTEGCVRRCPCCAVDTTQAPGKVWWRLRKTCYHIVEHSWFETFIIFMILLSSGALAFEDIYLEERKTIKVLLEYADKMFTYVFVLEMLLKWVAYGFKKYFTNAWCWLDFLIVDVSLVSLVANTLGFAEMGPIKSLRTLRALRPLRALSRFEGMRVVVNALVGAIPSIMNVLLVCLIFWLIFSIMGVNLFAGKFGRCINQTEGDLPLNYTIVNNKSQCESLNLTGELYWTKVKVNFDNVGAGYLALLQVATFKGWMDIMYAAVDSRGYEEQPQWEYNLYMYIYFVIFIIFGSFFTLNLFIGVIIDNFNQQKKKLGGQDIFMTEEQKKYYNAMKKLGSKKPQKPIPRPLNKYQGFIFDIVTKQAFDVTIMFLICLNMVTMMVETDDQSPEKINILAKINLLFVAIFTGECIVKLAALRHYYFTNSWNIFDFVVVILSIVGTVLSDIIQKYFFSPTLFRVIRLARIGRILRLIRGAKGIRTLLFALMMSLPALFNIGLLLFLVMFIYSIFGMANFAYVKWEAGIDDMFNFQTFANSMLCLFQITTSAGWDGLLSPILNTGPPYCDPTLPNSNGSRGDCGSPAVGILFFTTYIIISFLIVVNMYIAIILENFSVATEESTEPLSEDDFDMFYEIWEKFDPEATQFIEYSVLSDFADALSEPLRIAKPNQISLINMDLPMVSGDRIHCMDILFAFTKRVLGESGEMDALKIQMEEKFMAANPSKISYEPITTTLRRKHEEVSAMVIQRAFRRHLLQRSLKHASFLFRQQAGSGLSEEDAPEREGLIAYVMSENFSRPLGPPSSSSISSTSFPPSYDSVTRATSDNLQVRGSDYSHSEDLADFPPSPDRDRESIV
Description: as §1, §2, §3

Nav 1.7 [2] = target: T1, Nav 1.7; test: Nav 1.7 in vitro PX assay, PatchXpress whole cell voltage clamp; settings: HEK 293 cells stably transfected with human Nav1.7; for IC50: partially inactivated state (20 to 50% inactivation)
Method in brief: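 HEK293 cells stably expressing human Nav1.7, whole-cell voltage clamp at a holding potential giving 20–50% inactivation; currents elicited by 20 msec pulses to −10 mV at 0.1 Hz.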

T1 sequence (Q15858 whole entry): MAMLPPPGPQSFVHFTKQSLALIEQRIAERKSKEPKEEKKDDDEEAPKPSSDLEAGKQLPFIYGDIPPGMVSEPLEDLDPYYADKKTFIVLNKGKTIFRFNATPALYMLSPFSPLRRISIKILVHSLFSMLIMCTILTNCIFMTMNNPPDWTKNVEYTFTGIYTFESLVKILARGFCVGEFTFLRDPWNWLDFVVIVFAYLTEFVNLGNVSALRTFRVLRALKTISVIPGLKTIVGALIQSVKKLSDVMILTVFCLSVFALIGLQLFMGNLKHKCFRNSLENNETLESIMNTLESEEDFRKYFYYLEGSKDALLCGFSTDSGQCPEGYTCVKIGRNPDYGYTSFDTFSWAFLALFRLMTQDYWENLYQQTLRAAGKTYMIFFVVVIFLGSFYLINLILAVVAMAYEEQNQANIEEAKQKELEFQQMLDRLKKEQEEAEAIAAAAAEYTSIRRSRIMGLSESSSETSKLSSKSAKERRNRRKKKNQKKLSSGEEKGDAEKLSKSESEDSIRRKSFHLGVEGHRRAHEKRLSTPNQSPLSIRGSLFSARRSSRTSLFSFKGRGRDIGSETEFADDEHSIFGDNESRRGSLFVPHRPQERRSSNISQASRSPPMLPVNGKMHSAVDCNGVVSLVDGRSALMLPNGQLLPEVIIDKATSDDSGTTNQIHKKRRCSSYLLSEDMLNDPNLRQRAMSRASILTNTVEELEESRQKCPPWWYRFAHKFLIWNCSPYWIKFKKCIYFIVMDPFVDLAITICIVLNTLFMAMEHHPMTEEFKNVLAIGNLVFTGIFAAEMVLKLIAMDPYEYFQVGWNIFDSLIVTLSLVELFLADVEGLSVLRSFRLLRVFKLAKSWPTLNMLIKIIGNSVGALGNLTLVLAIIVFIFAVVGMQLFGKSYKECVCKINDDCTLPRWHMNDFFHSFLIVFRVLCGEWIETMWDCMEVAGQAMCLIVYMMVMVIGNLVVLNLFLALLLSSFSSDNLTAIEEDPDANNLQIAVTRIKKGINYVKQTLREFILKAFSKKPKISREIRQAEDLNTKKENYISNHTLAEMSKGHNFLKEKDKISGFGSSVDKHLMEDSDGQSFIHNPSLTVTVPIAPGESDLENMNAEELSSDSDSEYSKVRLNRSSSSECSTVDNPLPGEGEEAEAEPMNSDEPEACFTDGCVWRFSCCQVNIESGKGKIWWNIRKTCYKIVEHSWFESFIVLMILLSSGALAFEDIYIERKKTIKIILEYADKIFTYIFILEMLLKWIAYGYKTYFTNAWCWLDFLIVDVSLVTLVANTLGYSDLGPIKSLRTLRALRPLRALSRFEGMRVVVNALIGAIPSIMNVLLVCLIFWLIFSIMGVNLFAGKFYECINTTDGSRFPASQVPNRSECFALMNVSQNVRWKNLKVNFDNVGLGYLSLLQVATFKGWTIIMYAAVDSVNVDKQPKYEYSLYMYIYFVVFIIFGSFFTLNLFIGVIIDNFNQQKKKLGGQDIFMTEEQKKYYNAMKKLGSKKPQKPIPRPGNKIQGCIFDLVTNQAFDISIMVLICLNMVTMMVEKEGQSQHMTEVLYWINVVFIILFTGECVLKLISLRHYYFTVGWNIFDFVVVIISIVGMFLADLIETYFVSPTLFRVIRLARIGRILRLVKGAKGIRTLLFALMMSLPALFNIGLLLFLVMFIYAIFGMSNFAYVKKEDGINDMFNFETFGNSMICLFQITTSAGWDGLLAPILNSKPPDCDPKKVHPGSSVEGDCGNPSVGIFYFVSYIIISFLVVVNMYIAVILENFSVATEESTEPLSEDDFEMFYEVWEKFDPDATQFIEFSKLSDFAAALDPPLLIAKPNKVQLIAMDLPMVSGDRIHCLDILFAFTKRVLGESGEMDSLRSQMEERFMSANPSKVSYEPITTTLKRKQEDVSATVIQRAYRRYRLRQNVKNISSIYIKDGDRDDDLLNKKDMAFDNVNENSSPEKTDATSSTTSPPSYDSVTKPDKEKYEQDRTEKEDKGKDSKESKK

| IC50 (Nav 1.7 [1]) | IC50 (Nav 1.7 [2]) | inhibition at 4.9 µM (Nav 1.7 [2]; HEK293, values marked *, 4.9 μM, read-out: Nav 1.7 PX percent inhibition at 4.9 μM) | Structure (SMILES) | IC50 (Nav 1.5) |
| --- | --- | --- | --- | --- |
| 10.8 nM | 57.7 nM |  | Cn1nccc1-c1cc(C(F)(F)F)ccc1N1CCOc2cc(S(=O)(=O)Nc3ncns3)ccc21 [Example 3, 4-(2-(1-Methyl-1H-Pyrazol-5-Yl)-4-(Trifluoromethyl)Phenyl)-N-(1,2,4-Thiadiazol-5-Yl)-3,4-Dihydro-2H-Benzo[B][1,4]Oxazine-7-Sulfonamide] | 1870 nM |
| 9.33 nM | 57.6 nM |  | O=S(=O)(Nc1ncns1)c1ccc2c(c1)OCCN2c1ccc(C(F)(F)F)cc1-c1cn[nH]c1 [Example 4, 4-(2-(1H-Pyrazol-4-Yl)-4-(Trifluoromethyl)Phenyl)-N-(1,2,4-Thiadiazol-5-Yl)-3,4-Dihydro-2H-Benzo[B][1,4]Oxazine-7-Sulfonamide] | 944 nM |
| 245 nM | 322 nM |  | O=S(=O)(Nc1nccs1)c1ccc2c(c1)OCCN2c1ccc(C(F)(F)F)cc1Cl [Example 5, 4-(2-Chloro-4-(Trifluoromethyl)Phenyl)-N-(Thiazol-2-Yl)-3,4-Dihydro-2H-Benzo[B][1,4]Oxazine-7-Sulfonamide] | 4030 nM |
| 4.4 nM | 23.7 nM |  | O=S(=O)(Nc1ncns1)c1ccc2c(c1)OCCN2c1ccc(C(F)(F)F)cc1C1=CCNCC1 [Example 7, 4-(2-(1,2,3,6-Tetrahydropyridin-4-Yl)-4-(Trifluoromethyl)Phenyl)-N-(1,2,4-Thiadiazol-5-Yl)-3,4-Dihydro-2H-Benzo[B][1,4]Oxazine-7-Sulfonamide] | 349 nM |
| 876 nM | 6320 nM |  | O=S(=O)(Nc1cc(Cl)ncn1)c1ccc2c(c1)OCCN2c1ccc(C(F)(F)F)cc1Cl [Example 9, 4-(2-Chloro-4-(Trifluoromethyl)Phenyl)-N-(6-Chloropyrimidin-4-Yl)-3,4-Dihydro-2H-Benzo[B][1,4]Oxazine-7-Sulfonamide] | > 10000 nM |
| 4610 nM | 6750 nM |  | Cc1nsc(NS(=O)(=O)c2ccc3c(c2)OCCN3c2ccc(C(F)(F)F)cc2Cl)n1 [Example 10, 4-(2-Chloro-4-(Trifluoromethyl)Phenyl)-N-(3-Methyl-1,2,4-Thiadiazol-5-Yl)-3,4-Dihydro-2H-Benzo[B][1,4]Oxazine-7-Sulfonamide] | > 10000 nM |
| 3210 nM | 12600 nM |  | O=S(=O)(Nc1cscn1)c1ccc2c(c1)OCCN2c1ccc(C(F)(F)F)cc1Cl [Example 11, 4-(2-Chloro-4-(Trifluoromethyl)Phenyl)-N-(Thiazol-4-Yl)-3,4-Dihydro-2H-Benzo[B][1,4]Oxazine-7-Sulfonamide] | > 10000 nM |
| 1720 nM | 5160 nM |  | O=S(=O)(Nc1ccon1)c1ccc2c(c1)OCCN2c1ccc(C(F)(F)F)cc1Cl [Example 13, 4-(2-Chloro-4-(Trifluoromethyl)Phenyl)-N-(Isoxazol-3-Yl)-3,4-Dihydro-2H-Benzo[B][1,4]Oxazine-7-Sulfonamide] | > 10000 nM |
| 1860 nM | 11900 nM |  | O=S(=O)(Nc1ncccn1)c1ccc2c(c1)OCCN2c1ccc(C(F)(F)F)cc1Cl [Example 16, 4-(2-Chloro-4-(Trifluoromethyl)Phenyl)-N-(Pyrimidin-2-Yl)-3,4-Dihydro-2H-Benzo[B][1,4]Oxazine-7-Sulfonamide] | > 10000 nM |
| 3630 nM |  | 24.1% | O=S(=O)(Nc1ccc(F)cn1)c1ccc2c(c1)OCCN2c1ccc(C(F)(F)F)cc1Cl [Example 17, 4-(2-Chloro-4-(Trifluoromethyl)Phenyl)-N-(5-Fluoropyridin-2-Yl)-3,4-Dihydro-2H-Benzo[B][1,4]Oxazine-7-Sulfonamide] | > 10000 nM |
| 1040 nM | 946 nM |  | O=S(=O)(Nc1ncns1)c1ccc2c(c1)NCCN2c1ccc(C(F)(F)F)cc1Cl [Example 18, 1-(2-Chloro-4-(Trifluoromethyl)Phenyl)-N-(1,2,4-Thiadiazol-5-Yl)-1,2,3,4-Tetrahydroquinoxaline-6-Sulfonamide] | > 10000 nM |
| 15.8 nM | 162 nM |  | O=S(=O)(Nc1ncns1)c1ccc2c(c1)OCCN2c1ccc(C(F)(F)F)cc1-c1cccnc1 [Example 21, 4-(2-(Pyridin-3-Yl)-4-(Trifluoromethyl)Phenyl)-N-(1,2,4-Thiadiazol-5-Yl)-3,4-Dihydro-2H-Benzo[B][1,4]Oxazine-7-Sulfonamide] | 1330 nM |
| 10.5 nM | 134 nM |  | CN1CC=C(c2cc(C(F)(F)F)ccc2N2CCOc3cc(S(=O)(=O)Nc4ncns4)ccc32)CC1 [Example 22, 4-(2-(1-Methyl-1,2,3,6-Tetrahydropyridin-4-Yl)-4-(Trifluoromethyl)Phenyl)-N-(1,2,4-Thiadiazol-5-Yl)-3,4-Dihydro-2H-Benzo[B][1,4]Oxazine-7-Sulfonamide 2,2,2-Trifluoroacetate] | > 10000 nM |
| 29.8 nM | 659 nM |  | O=S(=O)(Nc1ncns1)c1ccc2c(c1)OCCN2c1ccc(C(F)(F)F)cc1-c1cncnc1 [Example 23, 4-(2-(Pyrimidin-5-Yl)-4-(Trifluoromethyl)Phenyl)-N-(1,2,4-Thiadiazol-5-Yl)-3,4-Dihydro-2H-Benzo[B][1,4]Oxazine-7-Sulfonamide] | 5410 nM |
| 834 nM | 4270 nM |  | O=S(=O)(Nc1ncco1)c1ccc2c(c1)OCCN2c1ccc(C(F)(F)F)cc1Cl [Example 24, 4-(2-Chloro-4-(Trifluoromethyl)Phenyl)-N-(Oxazol-2-Yl)-3,4-Dihydro-2H-Benzo[B][1,4]Oxazine-7-Sulfonamide] | > 10000 nM |
| 12.3 nM | 146 nM |  | O=S(=O)(Nc1ncns1)c1ccc2c(c1)OCCN2c1ccc(C(F)(F)F)cc1C1=CCOCC1 [Example 25, 4-(2-(3,6-Dihydro-2H-Pyran-4-Yl)-4-(Trifluoromethyl)Phenyl)-N-(1,2,4-Thiadiazol-5-Yl)-3,4-Dihydro-2H-Benzo[B][1,4]Oxazine-7-Sulfonamide] | 214 nM |
| 10.5 nM | 102 nM |  | O=S(=O)(Nc1ncns1)c1ccc2c(c1)OCCN2c1ccc(C(F)(F)F)cc1-c1ccncc1 [Example 26, 4-(2-(Pyridin-4-Yl)-4-(Trifluoromethyl)Phenyl)-N-(1,2,4-Thiadiazol-5-Yl)-3,4-Dihydro-2H-Benzo[B][1,4]Oxazine-7-Sulfonamide] | 306 nM |
| 1250 nM | 10700 nM |  | O=S(=O)(Nc1cccnn1)c1ccc2c(c1)OCCN2c1ccc(C(F)(F)F)cc1Cl [Example 27, 4-(2-Chloro-4-(Trifluoromethyl)Phenyl)-N-(Pyridazin-3-Yl)-3,4-Dihydro-2H-Benzo[B][1,4]Oxazine-7-Sulfonamide] | > 10000 nM |
| 656 nM | 2650 nM |  | O=S(=O)(Nc1nncs1)c1ccc2c(c1)OCCN2c1ccc(C(F)(F)F)cc1Cl [Example 28, 4-(2-Chloro-4-(Trifluoromethyl)Phenyl)-N-(1,3,4-Thiadiazol-2-Yl)-3,4-Dihydro-2H-Benzo[B][1,4]Oxazine-7-Sulfonamide] | > 10000 nM |
| 9.5 nM | 79 nM |  | Nc1cc(-c2cc(C(F)(F)F)ccc2N2CCOc3cc(S(=O)(=O)Nc4ncns4)ccc32)ccn1 [Example 29, 4-(2-(2-Aminopyridin-4-Yl)-4-(Trifluoromethyl)Phenyl)-N-(1,2,4-Thiadiazol-5-Yl)-3,4-Dihydro-2H-Benzo[B][1,4]Oxazine-7-Sulfonamide] | 634 nM |
| 142 nM | 756 nM |  | O=S(=O)(Nc1ncns1)c1ccc2c(c1)OCCN2c1ccccc1 [Example 30, 4-Phenyl-N-(1,2,4-Thiadiazol-5-Yl)-3,4-Dihydro-2H-Benzo[B][1,4]Oxazine-7-Sulfonamide] | > 10000 nM |
| 16 nM | 91.4 nM |  | N#Cc1cc(C(F)(F)F)ccc1N1CCOc2cc(S(=O)(=O)Nc3ncns3)ccc21 [Example 31, 4-(2-Cyano-4-(Trifluoromethyl)Phenyl)-N-(1,2,4-Thiadiazol-5-Yl)-3,4-Dihydro-2H-Benzo[B][1,4]Oxazine-7-Sulfonamide] | 1460 nM |

| Structure (SMILES) | IC50 (Nav 1.7 [1]) | IC50 (Nav 1.7 [2]) | inhibition at 4.9 µM (Nav 1.7 [2]; HEK293, values marked *, 4.9 μM, read-out: Nav 1.7 PX percent inhibition at 4.9 μM) | IC50 (Nav 1.5) |
| --- | --- | --- | --- | --- |
| NCc1nsc(NS(=O)(=O)c2ccc3c(c2)OCCN3c2ccc(C(F)(F)F)cc2Cl)n1 [Example 8, N-(3-(Aminomethyl)-1,2,4-Thiadiazol-5-Yl)-4-(2-Chloro-4-(Trifluoromethyl)Phenyl)-3,4-Dihydro-2H-Benzo[B][1,4]Oxazine-7-Sulfonamide 2,2,2-Trifluoroacetate] | 7580 nM | 16000 nM |  | > 10000 nM |
| CN1CCN(c2ccc(C(F)(F)F)cc2Cl)c2ccc(S(=O)(=O)Nc3ncns3)cc21 [Example 19, 1-(2-Chloro-4-(Trifluoromethyl)Phenyl)-4-Methyl-N-(1,2,4-Thiadiazol-5-Yl)-1,2,3,4-Tetrahydroquinoxaline-6-Sulfonamide] | 1180 nM | 4890 nM |  | > 10000 nM |

Source: US9346798B2, “Dihydrobenzoxazine and tetrahydroquinoxaline sodium channel inhibitors” (AMGEN INC., priority 2012, dated 2016)
